Some results are limits rather than exact numbers.

One data set deals with gastric acid secretion. Nature of the data set: inhibition of 4-methylhistamine-stimulated gastric acid secretion in the conscious Heidenhain pouch dog. As to conditions: Canis lupus familiaris, oral, 4-methylhistamine dihydrochloride infusion i.v., read-out: effective therapeutic dosage (per os amount causing 60-80% inhibition of acid secretion produced by 4-methylhistamine). The format is in vivo. The source says: A part of the stomach fundus of dogs is separated from the remaining stomach in the form of a pouch according to the Heidenhain technique described by Rudick et al in J. Surgical Research, vol. 7, pp 383-398 (1967). The pouch is fitted with a steel canula conducted externally through the abdominal wall and the operation is allowed to heal. Utilizing a conscious dog prepared as above, gastric secretion is stimulated by an infusion of 4-methylhistaminedihydrochloride (40 μ/kg per hr., i.v.) which selectively stimulates histamine H2 receptors. When volumes of fifteen minute samples of gastric secretion and pH levels appear constant, the test substance is administered orally and samples again taken. […] In the context of this procedure, an effective therapeutic dosage may be defined as the amount of test substance administered per os which causes an inhibition of from 60-80% of the acid secretion produced by the administration of 4-methylhistamine.

For data set [1], the system named is stress-induced gastric ulcers. Put plainly: inhibition of the formation of stress-induced gastric ulcers in rats (water bath). Format: in vivo. As to conditions: Rattus norvegicus, po, 6 h; female rats 140 to 160 g; per os; water bath 22.5° C. for six hours; 10 rats per dosage; Probit method; read-out: ED50 (effective dosage at which 50% of the rats are protected against stress-induced ulcers). As for the experimental part: After six hours in the water, the animals were sacrificed and the incidence of ulcers noted. The ED50, that is, the dosage at which 50% of the 10 rats utilized per dosage are protected against stress-induced ulcers by the test compound was then determined according to the Probit method.

The next data set is described as follows: LD50 in the mouse. As to conditions: in vivo, po, per os.

Take `Cc1ccc(CSc2nc3cc4ccccc4cc3[nH]2)nc1` [2-/[(5-methyl-2-pyridyl)-methyl]thio/-1H-naphth[2,3-d]imidazole]: the ED (60-80) with gastric acid secretion was approximately 3 mg/kg. Besides, the median effective dose (ED50) – broadly, the midpoint of the dose-response relation – in data set [1] came out at 31 mg/kg. Moreover, the median lethal dose (LD50) – broadly, the dose at which mortality reaches 50% – in the data set “LD50 in the mouse” came out at 8000 mg/kg.
Take `c1ccc(CSc2nc3cc4ccccc4cc3[nH]2)nc1` [2-[(2-pyridylmethyl)thio]-1H-naphth[2,3-d]imidazole]: the ED (60-80) in the data set on gastric acid secretion was approximately 3 mg/kg. The ED50 in data set [1] came to 12 mg/kg. For the same compound, the 50% lethal dose (LD50) in the data set “LD50 in the mouse” was more than 5000 mg/kg.

These data come from US4248880A, “Treatment of gastric ulcers with naphthimidazole derivatives” (Hoffmann-La Roche Inc., priority 1977, dated 1981).
